The record followed here is US7019028B2, “Endiandric acid H and its derivatives, process for their preparation and use thereof” (Aventis Pharma Deutschland GmbH, priority 2002, dated 2006).

Data set [1] addresses T1, c-maf (Mus musculus, UniProt P54843).
T1 construct: expressed in transfected cells; host or cells: CHO-K1 (monoclonal line c-maf/IL-4 luc/NFAT)
T1 sequence (P54843 1-370): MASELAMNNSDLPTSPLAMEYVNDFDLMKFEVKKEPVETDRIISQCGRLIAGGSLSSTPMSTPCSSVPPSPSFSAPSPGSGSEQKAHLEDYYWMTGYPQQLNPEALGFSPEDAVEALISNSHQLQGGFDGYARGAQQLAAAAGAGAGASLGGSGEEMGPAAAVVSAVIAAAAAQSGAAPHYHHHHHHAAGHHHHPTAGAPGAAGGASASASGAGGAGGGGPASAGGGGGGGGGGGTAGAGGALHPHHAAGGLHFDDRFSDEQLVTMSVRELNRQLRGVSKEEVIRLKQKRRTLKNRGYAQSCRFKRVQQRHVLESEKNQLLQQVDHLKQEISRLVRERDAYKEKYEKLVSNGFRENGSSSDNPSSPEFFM
Nature of the data set: Bioassay: human IL-4 promoter/luciferase reporter in c-maf/IL-4 luc/NFAT CHO-K1 cell line. It counts as cell-based, murine. To be noted: CHO-K1 cells with c-maf/IL-4 luc/NFAT vectors, 8 hours incubation; read-out: IC50 in the bioassay (inhibition of luciferase expression). How it is done: The zipper protein c-maf represents the assay target. It plays an important part in the release of mediators of inflammation, especially IL-4, and thus in the manifestation of inflammatory symptoms in asthma and allergies. c-maf is thus an important therapeutic target molecule for asthma, especially if it has an allergic cause. The activity of c-maf is measured in the assay on the basis of the IL-4 transcription rate. Compounds which interfere with the binding of the two transcription factors c-maf and NFAT lead in this case to a reduced expression of luciferase (read-out) through suppression of the transcription of a human IL-4 promoter/luciferase construct. […]
16 hours before the assay, CHO-K1 cells were harvested by trypsinization, washed once with PBS without Ca and Mg, resuspended in Ham's F-12 medium which additionally contained 10% fetal calf serum, 1% antibiotic/antimycotic, 0.001% Pluronic, 300 μg/ml Geneticin and 300 μg/ml Zeocin, and then quantified using a hemocytometer. […]
After the incubation time, the cells are in each case mixed with 3 μl of Bright-Glow™ luciferase assay reagent (Promega Corporation, Madison, USA) per well. The plates are then placed in the dark for 30 minutes and subsequently measured in a CyBiTM Lumax reader. […]
The inhibition was calculated as follows: [1−(LCSsample−LCSposcontr)/(LCSnegcontr−LCSposcontr)]×100(%)

A short description of data set [2]: Solubility (characterization of endiandric acid H). Type of data set: physicochemical.
Data set [3] in a line: Stability in the solid state and in solution. It counts as physicochemical. To be noted: solid state; solutions in the pH range between 3 and 8, in particular 4 and 6.

As for `O=C(O)C[C@@H]1[C@H]2C=C[C@H]3C(c4ccc5c(c4)OCO5)=C[C@@H](O)[C@@H]4C[C@H]1[C@@H]2[C@H]43` [Endiandric acid H, endiandric acid H], the IC50 in data set [1] stood at 1500 nM. In addition, the “Solubility in polar organic solvents” value in data set [2] (polar organic solvents) was “soluble in polar organic solvents”. Besides, in data set [2] (water), the Solubility in water entry is “only slightly soluble in water”. The Stability result in data set [3] was “stable in the solid state and in solutions in the pH range between 3 and 8”.

The IC50 is the concentration that gives 50% inhibition.
